For orientation: EC50 means the midpoint of the concentration-response curve.

Consider eleven compounds from patent US20240391954A1, “MC4R AGONIST PEPTIDES” (The Regents of the University of Michigan, priority 2021, published 2024).

Molecules are shown by their SMILES. Like-named read-outs stand apart in the source and are kept apart here. Positions of bridges follow the written chain, without caps; N, C: chain ends. Non-standard residues stand in square brackets, D forms with d. Residues, ends and D or L forms follow the SMILES beside them. dBip = N[C@H](Cc1ccc(-c2ccccc2)cc1)C(=O)O; dPhe(4-Br) = N[C@H](Cc1ccc(Br)cc1)C(=O)O; Cit = NC(=O)NCCC[C@H](N)C(=O)O; Nle = CCCC[C@H](N)C(=O)O; Aib = CC(C)(N)C(=O)O Bounds are passed on as bounds.

In one experiment the target is T1, human MC3R (Homo sapiens, UniProt P41968).
T1 construct: expressed in transfected cells; host or cells: HEK-293 cells stably expressing the GScAMP22F split-luciferase cAMP sensor (parent reporter line from Promega); MC3R clone generated in-house, G418 selection
T1 sequence (P41968 whole entry): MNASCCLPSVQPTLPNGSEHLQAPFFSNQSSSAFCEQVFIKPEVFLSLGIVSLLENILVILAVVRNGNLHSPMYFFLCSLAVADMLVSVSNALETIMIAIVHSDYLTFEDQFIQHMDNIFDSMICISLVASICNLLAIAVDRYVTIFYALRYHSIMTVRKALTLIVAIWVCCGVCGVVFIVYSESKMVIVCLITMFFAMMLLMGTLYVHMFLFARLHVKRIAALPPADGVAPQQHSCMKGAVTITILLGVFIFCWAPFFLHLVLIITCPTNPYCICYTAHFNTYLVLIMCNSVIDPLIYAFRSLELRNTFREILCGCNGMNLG
Nature of the experiment: split-luciferase cAMP sensor assay, agonist mode (measurement window 1), hMC3R. The following applies: agonist mode; for Emax: read-out: MC3R cAMP % max activation; for EC50: read-out: MC3R cAMP EC50. The experiment is classed as cell-based. An outline of the steps: (§1)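 EC50 values come from a four-parameter variable-slope fit of luminescence in measurement window 1, capturing direct peptide effects on receptor-expressing cells with a cAMP22f luciferase sensor. Cells were preloaded with 4% D-luciferin, serum-free medium; 20 μM forskolin normalized for cell number and transducer efficiency.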

A further experiment deals with T2, human MC4R (Homo sapiens, UniProt P32245).
T2 construct: host or cells: HEK-293 cells stably expressing the GScAMP22F split-luciferase cAMP sensor and hMC4R, G418 selection
T2 sequence (P32245 whole entry): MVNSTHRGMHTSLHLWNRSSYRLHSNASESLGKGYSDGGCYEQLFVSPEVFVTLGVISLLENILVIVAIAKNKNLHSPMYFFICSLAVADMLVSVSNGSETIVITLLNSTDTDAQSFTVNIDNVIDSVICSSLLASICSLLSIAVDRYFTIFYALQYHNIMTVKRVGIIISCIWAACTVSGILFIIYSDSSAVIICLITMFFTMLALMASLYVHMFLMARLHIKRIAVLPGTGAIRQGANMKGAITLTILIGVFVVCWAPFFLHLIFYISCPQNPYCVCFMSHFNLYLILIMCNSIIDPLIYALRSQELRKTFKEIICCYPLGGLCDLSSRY
Kind of experiment: split-luciferase cAMP sensor assay, agonist mode (measurement window 1), hMC4R. The following applies: for Emax / EC50: agonist mode; for Emax: read-out: MC4R cAMP % max activation; for EC50: read-out: MC4R cAMP EC50. The experiment is classed as cell-based. An outline of the steps: as §1

Take `CC(=O)N[C@@H](CCCNC(=N)N)C(=O)N[C@H]1CSSC[C@@H](C(N)=O)NC(=O)[C@@H](C)NC(=O)[C@H](CCCNC(=N)N)NC(=O)[C@@H](Cc2ccc(Br)cc2)NC(=O)[C@H](CCCNC(=N)N)NC(=O)[C@@H](C)NC1=O` [CTX-1260, Arg-cyclo(Cys-D-Ala-Arg-D-Phe(4-Br)-Arg-D-Ala-Cys)] (Ac-RC[dA]R[dPhe(4-Br)]R[dA]C-NH2; disulfide 2-8): the Emax on human MC3R (hMC3R stable cell line) amounted to 13%. On human MC4R, the “MC4R selectivity vs MC1R” value worked out at 0.01 and the “MC4R selectivity vs MC3R” value came out at 0.05. For the same compound, the Emax at human MC4R (hMC4R stable cell line) worked out at 38%.
The corresponding values for `CC(=O)N[C@@H](CCCNC(=N)N)C(=O)N[C@H]1CSSC[C@@H](C(N)=O)NC(=O)[C@H](Cc2c[nH]c3ccccc23)NC(=O)[C@@H](CCCNC(=N)N)NC(=O)[C@@H](Cc2ccccc2)NC(=O)[C@H](CCCNC(=N)N)NC(=O)[C@@H](C)NC1=O` [CTX-1282, Arg-cyclo(Cys-D-Ala-Arg-D-Phe-D-Arg-Trp-Cys)] (Ac-RC[dA]R[dF][dR]WC-NH2; disulfide 2-8 (inferred)) are 4.2%, 0.14, 0.38 and 72%.
With `COc1ccc(C[C@H]2NC(=O)[C@H](CCCNC(N)=O)NC(=O)C(C)(C)NC(=O)[C@@H](NC(=O)[C@H](CCCNC(=N)N)NC(C)=O)CSSC[C@@H](C(N)=O)NC(=O)[C@@H](Cc3c[nH]c4ccccc34)NC(=O)[C@H](CCCNC(=N)N)NC2=O)cc1` [CTX-1600, Arg-cyclo(Cys-Aib-Cit-D-Tyr(4-OMe)-Arg-D-Trp-Cys)] (Ac-RC[Aib][Cit][dY](Me)R[dW]C-NH2; disulfide 2-8), on human MC3R (hMC3R stable cell line), the EC50 was above 10000 nM. Besides, on human MC4R, the “MC4R selectivity vs MC1R” value was above 70 and the “MC4R selectivity vs MC3R” value was above 70. Moreover, the Emax on human MC4R (hMC4R stable cell line) turned out to be 58%.
For `CC(=O)N[C@@H](CCCNC(=N)N)C(=O)N[C@H]1CSSC[C@@H](C(N)=O)NC(=O)[C@@H](Cc2c[nH]c3ccccc23)NC(=O)[C@H](CCCNC(=N)N)NC(=O)[C@@H](Cc2ccc(O)cc2)NC(=O)[C@H](CCCNC(=N)N)NC(=O)[C@@H](C)NC1=O` [CTX-1237, Arg-cyclo(Cys-D-Ala-Arg-D-Tyr-Arg-D-Trp-Cys)] (Ac-RC[dA]R[dY]R[dW]C-NH2; disulfide 2-8 (inferred)), at human MC3R (hMC3R stable cell line), the Emax stood at 19%. Moreover, on human MC4R, the “MC4R selectivity vs MC1R” value worked out at 0.24 and the “MC4R selectivity vs MC3R” value was determined as 0.08. Further, the Emax on human MC4R (hMC4R stable cell line) was found to be 61%.
`CCCC[C@H](NC(=O)[C@H](CCCNC(=N)N)NC(C)=O)C(=O)N[C@H]1CSSC[C@@H](C(N)=O)NC(=O)[C@@H](Cc2c[nH]c3ccccc23)NC(=O)[C@H](CCCNC(=N)N)NC(=O)[C@@H](Cc2ccc(Br)cc2)NC(=O)[C@H](CCCNC(=N)N)NC1=O` [CTX-1613, Arg-Nle-cyclo(Cys-Arg-D-Phe(4-Br)-Arg-D-Trp-Cys)] (Ac-R[Nle]CR[dPhe(4-Br)]R[dW]C-NH2; disulfide 3-8 (inferred)): on human MC3R (hMC3R stable cell line), the Emax turned out to be 35% and the EC50 was 4 nM. For the same compound, on human MC4R, the “MC4R selectivity vs MC1R” value is on record as 0.79 and the “MC4R selectivity vs MC3R” value is on record as 2.1. On human MC4R (hMC4R stable cell line), the Emax amounted to 32% and the EC50 was 1.9 nM.
On to `CC(=O)N[C@@H](CCCNC(=N)N)C(=O)N[C@H]1CSSC[C@@H](C(N)=O)NC(=O)[C@H](Cc2c[nH]c3ccccc23)NC(=O)[C@H](CCCNC(=N)N)NC(=O)[C@H](Cc2ccccc2)NC(=O)[C@H](Cc2c[nH]cn2)NC(=O)[C@@H](C)NC1=O` [CTX-1213, Arg-cyclo(Cys-D-Ala-His-Phe-Arg-Trp-Cys)], for which the Emax came out at 97% at human MC3R (% maximal activation) and 104% on human MC4R (% maximal activation).
Consider `CC(=O)N[C@@H](CCCNC(=N)N)C(=O)N[C@H]1CSSC[C@@H](C(N)=O)NC(=O)[C@@H](Cc2c[nH]c3ccccc23)NC(=O)[C@H](CCCNC(=N)N)NC(=O)[C@@H](Cc2c[nH]c3ccccc23)NC(=O)[C@H](CCCNC(=N)N)NC(=O)[C@@H](C)NC1=O` [CTX-1275, Arg-cyclo(Cys-D-Ala-Arg-D-Trp-Arg-D-Trp-Cys)] (Ac-RC[dA]R[dW]R[dW]C-NH2; disulfide 2-8 (inferred)), for which, on human MC3R (hMC3R stable cell line), the “MC3R cAMP % max activation” value is “(3.3%)” and the EC50 amounted to 248 nM. Moreover, on human MC4R, the “MC4R selectivity vs MC1R” value came out at 0.22 and the “MC4R selectivity vs MC3R” value amounted to 0.27. On human MC4R (hMC4R stable cell line), the Emax turned out to be 24% and the EC50 was 906 nM.
Regarding `CC(=O)N[C@@H](CCCNC(=N)N)C(=O)N[C@H]1CSSC[C@@H](C(=O)N[C@@H](CCCNC(=N)N)C(=O)N[C@@H](Cc2ccccc2)C(N)=O)NC(=O)[C@@H](Cc2c[nH]c3ccccc23)NC(=O)[C@H](CCCNC(=N)N)NC(=O)[C@@H](Cc2ccc(Br)cc2)NC(=O)[C@H](CCCNC(=N)N)NC(=O)[C@@H](C)NC1=O` [CTX-1220, Arg-cyclo(Cys-D-Ala-Arg-D-Phe(4-Br)-Arg-D-Trp-Cys)-Arg-Phe] (Ac-RC[dA]R[dPhe(4-Br)]R[dW]CRF-NH2; disulfide 2-8 (inferred)), the Emax on human MC3R (hMC3R stable cell line) stood at 21%. At human MC4R, the “MC4R selectivity vs MC1R” value turned out to be 1.53 and the “MC4R selectivity vs MC3R” value is on record as 3.82. Moreover, the Emax at human MC4R (hMC4R stable cell line) is 76%.
The corresponding values for `CC(=O)N[C@@H](CCCNC(=N)N)C(=O)N[C@H]1CSSC[C@@H](C(N)=O)NC(=O)[C@@H](Cc2c[nH]c3ccccc23)NC(=O)[C@H](CCCNC(=N)N)NC(=O)[C@@H](Cc2ccc(-c3ccccc3)cc2)NC(=O)[C@H](CCCNC(=N)N)NC(=O)[C@@H](C)NC1=O` [CTX-1243, Arg-cyclo(Cys-D-Ala-Arg-D-Bip-Arg-D-Trp-Cys)] (Ac-RC[dA]R[dBip]R[dW]C-NH2; disulfide 2-8 (inferred)) are 7.7%, 0.21, 0.38 and 32%.
`CC(=O)N[C@@H](CCCNC(=N)N)C(=O)N[C@H]1CSSC[C@@H](C(N)=O)NC(=O)[C@@H](Cc2c[nH]c3ccccc23)NC(=O)[C@H](CCCNC(=N)N)NC(=O)[C@@H](Cc2ccc(Br)cc2)NC(=O)[C@@H]2CCCN2C(=O)[C@@H](C)NC1=O` [CTX-1249, Arg-cyclo(Cys-D-Ala-Pro-D-Phe(4-Br)-Arg-D-Trp-Cys)] (Ac-RC[dA]P[dPhe(4-Br)]R[dW]C-NH2; disulfide 2-8): the Emax at human MC3R (hMC3R stable cell line) was 1.9%. At human MC4R, the “MC4R selectivity vs MC1R” value was found to be 5.08 and the “MC4R selectivity vs MC3R” value was 0.45. Further, on human MC4R (hMC4R stable cell line), the Emax came out at 22% and the EC50 amounted to 14 nM.
In the case of `CC(=O)N[C@@H](CCCNC(=N)N)C(=O)N[C@H]1CSSC[C@@H](C(=O)N[C@@H](CCCCN)C(=O)N2CCC[C@H]2C(=O)N[C@H](C(N)=O)C(C)C)NC(=O)[C@@H](Cc2c[nH]c3ccccc23)NC(=O)[C@H](CCCNC(=N)N)NC(=O)[C@@H](Cc2ccc(Br)cc2)NC(=O)[C@H](CCCNC(=N)N)NC(=O)[C@@H](C)NC1=O` [CTX-1216, Arg-cyclo(Cys-D-Ala-Arg-D-Phe(4-Br)-Arg-D-Trp-Cys)-Lys-Pro-Val] (Ac-RC[dA]R[dPhe(4-Br)]R[dW]CKPV-NH2; disulfide 2-8 (inferred)), at human MC3R (hMC3R stable cell line), the Emax is 11% and the EC50 was 3.5 nM. At human MC4R, the “MC4R selectivity vs MC1R” value came to 0.82 and the “MC4R selectivity vs MC3R” value is reported as 1.99. In addition, at human MC4R (hMC4R stable cell line), the Emax was 69% and the EC50 amounted to 1.8 nM.
